In ChEMBL document CHEMBL4392830, “Synthesis and biological evaluation of Doxorubicin-containing conjugate targeting PSMA” (Bioorg Med Chem Lett, 2019):
pIC50: −log10 of the molar value. Activity calls are given as the source filed them. No cut-off for these calls is given here.

Tests used:
[1] = target: T1, Glutamate carboxypeptidase 2 (Homo sapiens, UniProt Q04609); test: Binding affinity to PSMA in human LNCAP cells measured after 2 hrs by DAPI staining based fluorescence assay; assay type: ADME, cell-based
[2] = Drug uptake in PSMA-negative human PC3 cells measured after 2 hrs by DAPI staining based fluorescence assay; assay type: ADME, cell-based; conditions: pc-3, 2 h
[3] = Drug uptake in nucleus of PSMA-positive human LNCAP cells at 15 uM measured after 2 hrs by DAPI staining based fluorescence assay; assay type: ADME, subcellular
PC-3 [4] = test: Cytotoxicity against PSMA-negative human PC3 cells by cellTiter 96 aqueous cell proliferation assay; assay type: functional, cell-based
[5] = Antitumor activity against PSMA-positive human PC3-PIP cells xenografted in nu/nu mouse assessed as tumor growth inhibition at 4 mg/kg, ip per week for 3 weeks relative to control; assay type: functional; conditions: 504 h, read-out: TGI
LNCaP C4-2 = test: Cytotoxicity against PSMA-positive human C4-2 cells by cellTiter 96 aqueous cell proliferation assay; assay type: functional, cell-based
PC-3 [6] = test: Cytotoxicity against PSMA-negative human PC3 cells by MTT assay; assay type: functional
[7] = Drug uptake in nucleus of PSMA-positive human LNCAP cells measured after 48 hrs; assay type: ADME, subcellular
[8] = Ratio of drug level in nucleus to cytoplasm of PSMA-negative human PC3 cells measured after 40 milliseconds; assay type: ADME
[9] = Drug uptake in nucleus of PSMA-negative human PC3 cells at 15 uM measured after 2 hrs by DAPI staining based fluorescence assay; assay type: ADME, subcellular; conditions: pc-3, 2 h
[10] = Ratio of drug level in nucleus to cytoplasm of PSMA-positive human LNCAP cells measured after 40 milliseconds; assay type: ADME
LNCaP = test: Cytotoxicity against PSMA-positive human LNCAP cells by MTT assay; assay type: functional
[11] = target: T1, Glutamate carboxypeptidase 2; test: Binding affinity to PSMA in human LNCAP cells assessed as doxorubicin release in cytoplasm measured after 40 milliseconds; assay type: ADME, cell-based
[12] = Drug uptake in nucleus of PSMA-negative human PC3 cells measured after 40 milliseconds; assay type: ADME, subcellular; conditions: pc-3
[13] = Drug uptake in cytoplasm of PSMA-negative human PC3 cells measured after 40 milliseconds; assay type: ADME, subcellular; conditions: pc-3
[14] = target: T1, Glutamate carboxypeptidase 2; test: Binding affinity to PSMA in human LNCAP cells assessed as doxorubicin release in nucleus measured after 40 milliseconds; assay type: ADME, cell-based
[15] = target: T1, Glutamate carboxypeptidase 2; test: Binding affinity to PSMA in human LNCAP cells assessed as doxorubicin release in cytoplasm measured after 48 hrs; assay type: ADME, cell-based

T1 sequence (Q04609 whole entry): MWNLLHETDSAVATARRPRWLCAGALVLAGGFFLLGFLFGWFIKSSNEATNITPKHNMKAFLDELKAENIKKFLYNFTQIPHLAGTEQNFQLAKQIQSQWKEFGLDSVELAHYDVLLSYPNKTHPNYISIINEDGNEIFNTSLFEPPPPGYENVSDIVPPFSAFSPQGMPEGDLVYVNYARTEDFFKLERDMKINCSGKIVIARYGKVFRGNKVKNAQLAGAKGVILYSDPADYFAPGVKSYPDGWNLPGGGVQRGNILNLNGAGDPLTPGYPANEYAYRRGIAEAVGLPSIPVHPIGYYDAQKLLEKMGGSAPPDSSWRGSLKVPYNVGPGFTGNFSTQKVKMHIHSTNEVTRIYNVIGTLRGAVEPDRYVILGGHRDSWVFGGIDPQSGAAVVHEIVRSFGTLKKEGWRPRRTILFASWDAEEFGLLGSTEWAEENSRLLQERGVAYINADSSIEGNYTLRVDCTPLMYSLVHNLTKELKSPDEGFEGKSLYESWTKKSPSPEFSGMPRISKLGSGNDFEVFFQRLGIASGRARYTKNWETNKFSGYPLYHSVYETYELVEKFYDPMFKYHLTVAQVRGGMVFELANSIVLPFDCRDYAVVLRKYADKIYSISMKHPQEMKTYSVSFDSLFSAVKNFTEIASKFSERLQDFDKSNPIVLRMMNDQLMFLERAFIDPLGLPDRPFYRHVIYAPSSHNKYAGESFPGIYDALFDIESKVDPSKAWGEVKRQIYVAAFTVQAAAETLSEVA

Row | Activity [1] | Drug uptake [2] | Drug uptake [3] | Drug uptake [7] | Ratio [8] | Drug uptake [9] | Ratio [10] | Activity [11] | Drug uptake [12] | Drug uptake [13] | Activity [14] | Activity [15] | SMILES | pIC50 (PC-3 [4]) | inhibition in vivo at 4 mg/kg [5] [%] | pIC50 (LNCaP C4-2) | CC50 (PC-3 [6]) | CC50 (LNCaP) | Activity (PC-3 [4]) | Activity (LNCaP C4-2)
1 | Active | Not Active | – | – | – | – | – | – | – | – | – | – | CN1\C(=C/C=C/C=C/C2=[N+](CCCCCC(=O)NCCCCCCCCCCC(=O)NCCCC[C@H](NC(=O)N[C@@H](CCC(=O)O)C(=O)O)C(=O)O)c3cc(S(=O)(=O)[O-])ccc3C2(C)C)C(C)(C)c2cc(S(=O)(=O)[O-])ccc21.[Na+] | – | – | – | – | – | – | –
2 | – | – | Active | Active | 3.7 | Active | 3.5 | – | – | – | – | – | COc1cccc2c1C(=O)c1c(O)c3c(c(O)c1C2=O)C[C@@](O)(C(=O)CO)C[C@@H]3O[C@H]1C[C@H](N)[C@H](O)[C@H](C)O1 [DOXORUBICIN] | < 7.49 | 92 | < 7.49 | < 500 nM | 107 nM | – | –
3 | – | – | – | – | – | – | – | Not Active | Not Active | Not Active | Not Active | Active | COc1cccc2c1C(=O)c1c(O)c3c(c(O)c1C2=O)C[C@@](O)(C(=O)CO)C[C@@H]3O[C@H]1C[C@H](NC(=O)CCC(=O)NCCCCCCCCCCC(=O)NCCCC[C@H](NC(=O)N[C@@H](CCC(=O)O)C(=O)O)C(=O)O)[C@H](O)[C@H](C)O1 | – | – | – | inactive | inactive | inactive | inactive
